For 23 compounds, IC50 results are on record in patent US10329302B2, “Bicyclic-fused heteroaryl or aryl compounds” (Pfizer Inc., priority 2014, dated 2019).

Test [1] deals with R848-induced TNFα production by human peripheral blood mononuclear cells (PBMCs). The test is described as follows: R848 Induced TNFα in Human PBMC Assay. The class given is cell-based. The following applies: Homo sapiens, PBMC, 3 h, read-out: R848-induced TNFa PBMC IC50 (nM).
Excerpt: This protocol is for R848-induced TNFα production by human peripheral blood mononuclear cells (PBMCs). […] The assay is used to assess cell-based potency of small molecule inhibitors of IRAK4 in the absence of serum.
The PBMCs in the interphase layer were collected and washed with PBS via centrifugation multiple times until the supernatant is clear. The purified PBMCs were re-suspended in RPMI (Roswell Park Memorial Institute) media (Sigma-Aldrich).
For the assay, a compound dilution plate containing a top concentration of 4 mM compound in DMSO was serially diluted 4-fold for 11 times. 250 nL of the compound dilution plate was spotted into a 384-well, flat bottom with lid, TC-treated, black with clear bottom, sterile, polystyrene plate (Corning Life Sciences).
10 μL of anti-TNFα antibody labeled with MSD SULFO-TAG at 50 μg/mL was added to each well and allowed to incubate overnight at 4° C.
In test [2] the target is human IRAK4 FL (Full Length) (Homo sapiens (Human), UniProt Q9NWZ3). As to the kind of experiment: IRAK4 Enzymatic DELFIA Assay, Protocol A. Type of test: biochemical.
human IRAK4 FL (Full Length), sequence (Q9NWZ3 whole entry): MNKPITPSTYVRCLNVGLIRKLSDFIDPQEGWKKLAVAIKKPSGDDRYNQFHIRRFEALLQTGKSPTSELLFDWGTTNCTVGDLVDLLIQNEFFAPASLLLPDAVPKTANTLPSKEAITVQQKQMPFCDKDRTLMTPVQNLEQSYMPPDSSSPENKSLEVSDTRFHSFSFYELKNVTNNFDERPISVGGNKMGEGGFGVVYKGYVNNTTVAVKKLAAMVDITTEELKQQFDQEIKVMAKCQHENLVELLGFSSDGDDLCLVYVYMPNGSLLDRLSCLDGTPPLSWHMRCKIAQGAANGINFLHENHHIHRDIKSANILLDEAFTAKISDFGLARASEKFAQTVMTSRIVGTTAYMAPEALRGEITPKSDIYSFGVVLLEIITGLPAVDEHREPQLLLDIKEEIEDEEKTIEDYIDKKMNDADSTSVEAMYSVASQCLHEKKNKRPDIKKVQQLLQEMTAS
Setting [3] is: human IRAK4 FL, 0.6 mM ATP (KM), read-out: IRAK4 DELFIA Protocol A IC50.

Where two headings read alike, the source gives them in different places.

What is called IC50 is the concentration at which inhibition is half-maximal. Regarding `CC(C)Oc1cc2c(OC[C@@H]3CC(C4(O)CCOCC4)C(=O)N3)nccc2cc1C(N)=O` (stereo partly drawn) [Example 181, 1-{[(2S)-4-(4-hydroxytetrahydro-2H-pyran-4-yl)-5-oxopyrrolidin-2-yl]methoxy}-7-(propan-2-yloxy)isoquinoline-6-carboxamide], the IC50 in test [1] worked out at 503 nM; in test [2] (setting [3]) it was 5.7 nM.

As for `CC(C)Oc1cc2c(OC[C@H]3NC(=O)C(F)(F)[C@H]3C)nccc2cc1C(N)=O` [Example 183, 1-{[(2S,3S)-4,4-difluoro-3-methyl-5-oxopyrrolidin-2-yl]methoxy}-7-(propan-2-yloxy)isoquinoline-6-carboxamide], the IC50 stood at 10 nM in test [1] and 0.2 nM in test [2] (setting [3]).

`CC(C)Oc1cc2c(OC[C@H]3NC(=O)[C@@H](F)[C@H]3C)nccc2cc1C(N)=O` [Example 187, 1-{[(2S,3S,4S)-4-fluoro-3-methyl-5-oxopyrrolidin-2-yl]methoxy}-7-(propan-2-yloxy)isoquinoline-6-carboxamide]: the results for the IC50 in test [1] and in test [2] (setting [3]) were 40 nM and 1.1 nM, respectively.

Consider `CC[C@H]1[C@@H](COc2nccc3cc(C(N)=O)c(OC(C)C)cc23)NC(=O)C1(F)F` [Example 201, 1-{[(2S,3S)-3-ethyl-4,4-difluoro-5-oxopyrrolidin-2-yl]methoxy}-7-(propan-2-yloxy)isoquinoline-6-carboxamide], for which the IC50 in test [1] turned out to be 1 nM; in test [2] (setting [3]), 0.4 nM.

As for `CC(C)Oc1cc2c(OC[C@@H]3CNC(=O)N3)nccc2cc1C(N)=O` [Example 202, 1-{[(4S)-2-oxoimidazolidin-4-yl]methoxy}-7-(propan-2-yloxy)isoquinoline-6-carboxamide], the IC50 amounted to 922 nM in test [1] and 85 nM in test [2] (setting [3]).

Consider `COc1cc2c(OC[C@@H]3C[C@@](F)(CO)C(=O)N3)nccc2cc1C(N)=O` [Example 205, 1-{[(2S,4R)-4-fluoro-4-(hydroxymethyl)-5-oxopyrrolidin-2-yl]methoxy}-7-methoxyisoquinoline-6-carboxamide], for which the IC50 in test [1] was 380 nM; in test [2] (setting [3]), 3.6 nM.

Take `COc1cc2c(OC[C@@H]3CCC(=O)N3)cncc2cc1C(N)=O` [Example 206, 6-methoxy-4-{[(2S)-5-oxopyrrolidin-2-yl]methoxy}isoquinoline-7-carboxamide]: the results for the IC50 in test [1] and in test [2] (setting [3]) were 4570 nM and 216 nM, respectively.

With `COc1cc2c(OC[C@H]3NC(=O)[C@](F)(CO)[C@H]3C)nccc2cc1C(N)=O` [Example 208, 1-{[(2S,3S,4R)-4-fluoro-4-(hydroxymethyl)-3-methyl-5-oxopyrrolidin-2-yl]methoxy}-7-methoxyisoquinoline-6-carboxamide], the values for the IC50 in test [1] and in test [2] (setting [3]) were 87 nM and 1.1 nM, respectively.

As to `COc1cc2c(OC[C@@H]3CCC(=O)N3)ncnc2cc1C(N)=O` [Example 209, 6-methoxy-4-{[(2S)-5-oxopyrrolidin-2-yl]methoxy}quinazoline-7-carboxamide], the IC50 came out at 9310 nM in test [1] and 251 nM in test [2] (setting [3]).

With `COc1cc2c(OC[C@@H]3C[C@@](F)(CF)C(=O)N3)nccc2cc1C(N)=O` [Example 215, 1-{[(2S,4S)-4-fluoro-4-(fluoromethyl)-5-oxopyrrolidin-2-yl]methoxy}-7-methoxyisoquinoline-6-carboxamide], the results for the IC50 in test [1] and in test [2] were 35 nM and 1.7 nM, respectively.

In the case of `COc1cc2c(OC[C@H]3NC(=O)C[C@H]3C)cccc2cc1C(N)=O` [Example 216, 3-methoxy-5-{[(2S,3R)-3-methyl-5-oxopyrrolidin-2-yl]methoxy}naphthalene-2-carboxamide], the values for the IC50 in test [1] and in test [2] (setting [3]) were 27 nM and 0.4 nM, respectively.

Turning to `COc1cc2c(OC[C@H]3NC(=O)[C@@H](F)[C@H]3C)cccc2cc1C(N)=O` [Example 218, 5-{[(2S,3S,4S)-4-fluoro-3-methyl-5-oxopyrrolidin-2-yl]methoxy}-3-methoxynaphthalene-2-carboxamide], the results for the IC50 in test [1] and in test [2] (setting [3]) were 11 nM and 0.3 nM, respectively.

With `CC(C)Oc1cc2c(OC[C@H]3NC(=O)C[C@H]3C)nccc2cc1C(N)=O` [Example 219, 1-{[(2S,3R)-3-methyl-5-oxopyrrolidin-2-yl]methoxy}-7-(propan-2-yloxy)isoquinoline-6-carboxamide], the IC50 in test [1] was 65 nM; in test [2] (setting [3]), 1.7 nM.

On to `COc1cc2c(OC[C@@H]3C[C@@H](CC#N)C(=O)N3)nccc2cc1C(N)=O` [Example 225, 1-{[(2S,4S)-4-(cyanomethyl)-5-oxopyrrolidin-2-yl]methoxy}-7-methoxyisoquinoline-6-carboxamide], for which the figures for the IC50 in test [1] and in test [2] (setting [3]) were 155 nM and 3.4 nM, respectively.

In the case of `COc1cc2c(OC[C@H]3NC(=O)O[C@@H]3C)nccc2cc1C(N)=O` [Example 227, 7-methoxy-1-{[(4R,5R)-5-methyl-2-oxo-1,3-oxazolidin-4-yl]methoxy}isoquinoline-6-carboxamide], the IC50 turned out to be 749 nM in test [1] and 19 nM in test [2] (setting [3]).

Consider `COc1cc2c(OC[C@H]3NC(=O)O[C@@H]3C)cccc2cc1C(N)=O` [Example 228, 3-methoxy-5-{[(4R,5R)-5-methyl-2-oxo-1,3-oxazolidin-4-yl]methoxy}naphthalene-2-carboxamide], for which the IC50 in test [1] was determined as 118 nM; in test [2] (setting [3]), 4.2 nM.

Take `COc1cc2c(OC[C@H]3COC(=O)N3)nccc2cc1C(N)=O` [Example 229, 7-methoxy-1-{[(4S)-2-oxo-1,3-oxazolidin-4-yl]methoxy}isoquinoline-6-carboxamide]: the IC50 in test [1] came to 6300 nM; in test [2] (setting [3]), 3510 nM.

In the case of `COc1cc2c(OC[C@@H]3COC(=O)N3)nccc2cc1C(N)=O` [Example 230, 7-methoxy-1-{[(4R)-2-oxo-1,3-oxazolidin-4-yl]methoxy}isoquinoline-6-carboxamide], the IC50 in test [1] is 199 nM; in test [2] (setting [3]) it was 7 nM.

Regarding `COc1cc2c(OC[C@@H]3C[C@H](OC)C(=O)N3)cccc2cc1C(N)=O` [Example 231, 3-methoxy-5-{[(2S,4S)-4-methoxy-5-oxopyrrolidin-2-yl]methoxy}naphthalene-2-carboxamide], the IC50 in test [1] worked out at 509 nM; in test [2], 67 nM.

Turning to `COc1cc2c(OC[C@@H]3C[C@@H](OC)C(=O)N3)cccc2cc1C(N)=O` [Example 232, 3-methoxy-5-{[(2S,4R)-4-methoxy-5-oxopyrrolidin-2-yl]methoxy}naphthalene-2-carboxamide], the results for the IC50 in test [1] and in test [2] (setting [3]) were 261 nM and 20 nM, respectively.

On to `COc1cc2c(OC[C@@H]3COC(=O)N3)cccc2cc1C(N)=O` [Example 233, 3-methoxy-5-{[(4R)-2-oxo-1,3-oxazolidin-4-yl]methoxy}naphthalene-2-carboxamide], for which the results for the IC50 in test [1] and in test [2] (setting [3]) were 47 nM and 0.3 nM, respectively.

With `COc1cc2c(OC[C@H]3NC(=O)O[C@H]3C)cccc2cc1C(N)=O` [Example 234, 3-methoxy-5-{[(4R,5S)-5-methyl-2-oxo-1,3-oxazolidin-4-yl]methoxy}naphthalene-2-carboxamide], the IC50 in test [1] is 45 nM; in test [2] (setting [3]), 1.9 nM.

Regarding `COc1cc2c(OC[C@H]3CNC(=O)O3)nccc2cc1C(N)=O` [Example 235, 7-methoxy-1-{[(5R)-2-oxo-1,3-oxazolidin-5-yl]methoxy}isoquinoline-6-carboxamide], the IC50 in test [1] came to 1090 nM; in test [2] (setting [3]) it was 97 nM.
